Reference: article PMC11411704, “Gatekeeping Activity of Collinear Ketosynthase Domains Limits Product Diversity for Engineered Type I Polyketide Synthases” (Biochemistry, 2024)

Legend:
FabD = molecular target: T1, FabD (Escherichia coli, UniProt P0AAI9); experiment: carrier protein acylation under triketide pyrone production conditions; type: biochemical; settings: acceptor: PKS carrier protein domains
T1 sequence (P0AAI9 2-309): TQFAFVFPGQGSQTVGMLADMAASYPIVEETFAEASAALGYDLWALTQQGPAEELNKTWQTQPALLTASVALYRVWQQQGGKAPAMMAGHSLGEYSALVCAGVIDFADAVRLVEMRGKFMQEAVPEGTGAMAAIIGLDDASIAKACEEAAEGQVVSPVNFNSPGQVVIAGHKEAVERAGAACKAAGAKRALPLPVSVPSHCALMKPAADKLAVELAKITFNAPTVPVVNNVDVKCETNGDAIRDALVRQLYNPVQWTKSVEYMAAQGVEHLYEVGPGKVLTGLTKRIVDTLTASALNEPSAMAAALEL

[1] = molecular target: T2, Plt module-1 (P1 PKS module-1) (Pseudomonas fluorescens, UniProt O51827); experiment: diketide formation, extender unit competition assay; type: biochemical; settings: 4,5-dichloropyrrolyl-SNAC as ketide substrate; equimolar Mal-CoA and MeMal-CoA made with MatB; product diketide 6
T2 construct: gene pltB; module-1 only (KS-AT-CP) of the pyoluteorin PKS, wild-type AT; DEBS interdomain linkers used in the bimodular system; recombinant, purified; borders only in supplement
T2 sequence (O51827 1-1030 limits assumed): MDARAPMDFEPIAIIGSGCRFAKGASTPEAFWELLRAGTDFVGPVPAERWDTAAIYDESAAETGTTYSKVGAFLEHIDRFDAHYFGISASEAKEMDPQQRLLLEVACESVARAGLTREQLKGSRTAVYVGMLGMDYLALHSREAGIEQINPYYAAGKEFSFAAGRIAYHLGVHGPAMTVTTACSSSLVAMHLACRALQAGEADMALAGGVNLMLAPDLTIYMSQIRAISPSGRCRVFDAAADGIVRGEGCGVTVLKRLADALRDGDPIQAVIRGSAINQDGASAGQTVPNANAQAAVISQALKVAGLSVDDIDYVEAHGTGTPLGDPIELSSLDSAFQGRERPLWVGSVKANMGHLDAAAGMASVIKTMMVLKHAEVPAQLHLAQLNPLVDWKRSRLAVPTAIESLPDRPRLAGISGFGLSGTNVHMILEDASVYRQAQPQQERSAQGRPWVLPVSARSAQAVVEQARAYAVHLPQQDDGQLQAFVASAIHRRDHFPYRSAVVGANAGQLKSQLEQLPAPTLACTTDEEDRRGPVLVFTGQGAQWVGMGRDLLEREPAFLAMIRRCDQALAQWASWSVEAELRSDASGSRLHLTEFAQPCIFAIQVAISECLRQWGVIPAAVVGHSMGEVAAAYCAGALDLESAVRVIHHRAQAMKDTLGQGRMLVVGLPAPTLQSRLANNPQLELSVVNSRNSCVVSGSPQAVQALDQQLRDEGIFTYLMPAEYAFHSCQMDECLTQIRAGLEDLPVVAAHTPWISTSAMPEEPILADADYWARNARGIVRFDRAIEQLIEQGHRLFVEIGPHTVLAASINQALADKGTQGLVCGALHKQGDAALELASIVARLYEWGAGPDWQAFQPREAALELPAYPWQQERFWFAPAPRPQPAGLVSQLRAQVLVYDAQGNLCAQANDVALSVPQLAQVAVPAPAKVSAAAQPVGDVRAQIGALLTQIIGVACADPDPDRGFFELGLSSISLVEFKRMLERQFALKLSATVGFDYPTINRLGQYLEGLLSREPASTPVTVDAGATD

| Compound | carrier protein acylation under triketide pyrone production conditions (FabD) | diketide formation, extender unit competition assay [1] |
| --- | --- | --- |
| CCC(C(=O)O)C(=O)SCCNC(=O)CCNC(=O)[C@H](O)C(C)(C)COP(=O)(O)OP(=O)(O)OC[C@H]1O[C@@H](n2cnc3c(N)ncnc32)[C@H](O)[C@@H]1OP(=O)(O)O (stereo partly drawn) [EtMal-CoA] | FabD was also proficient in incorporating EtMal and PgMal extender units |  |
| CC(C(=O)O)C(=O)SCCNC(=O)CCNC(=O)[C@H](O)C(C)(C)COP(=O)(O)OP(=O)(O)OC[C@H]1O[C@@H](n2cnc3c(N)ncnc32)[C@H](O)[C@@H]1OP(=O)(O)O (stereo partly drawn) [MeMal-CoA] |  | the Plt module-1 KS could efficiently use the MeMal extender unit for diketide production |
| C#CCC(C(=O)O)C(=O)SCCNC(=O)CCNC(=O)[C@H](O)C(C)(C)COP(=O)(O)OP(=O)(O)OC[C@H]1O[C@@H](n2cnc3c(N)ncnc32)[C@H](O)[C@@H]1OP(=O)(O)O (stereo partly drawn) [PgMal-CoA] | FabD was also proficient in incorporating EtMal and PgMal extender units |  |
